Experimental data from US20230399341A1, “7-PHENYL SUBSTITUTED 2-AMINOQUINAZOLINE INHIBITORS OF HPK1” (MERCK SHARP & DOHME LLC, priority 2020, published 2023).

What follows are compounds tested against T1, Human HPK1, catalytic domain (Homo sapiens, UniProt Q92918) (assay: HPK1-SLP76 TR-FRET Assay). Settings: 75 pM HPK1, ATP 10 uM, SLP76 10 nM, 30 min pre-incubation, 60 min reaction.
T1 sequence (Q92918 1-346): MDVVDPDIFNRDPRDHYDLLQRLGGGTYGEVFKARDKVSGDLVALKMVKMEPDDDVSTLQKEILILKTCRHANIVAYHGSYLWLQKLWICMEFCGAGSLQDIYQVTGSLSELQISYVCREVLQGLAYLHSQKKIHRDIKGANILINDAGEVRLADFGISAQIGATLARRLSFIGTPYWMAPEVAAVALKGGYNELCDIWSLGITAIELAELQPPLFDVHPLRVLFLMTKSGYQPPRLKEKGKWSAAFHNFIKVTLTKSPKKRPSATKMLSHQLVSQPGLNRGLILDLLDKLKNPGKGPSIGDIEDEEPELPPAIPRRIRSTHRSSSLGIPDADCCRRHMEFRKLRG
Type: biochemical

SMILES	IC50 [nM]
Cc1c(-c2cc3nc(Nc4ccc(CC(=O)N(C)C)cc4)ncc3cc2F)cnc2c1NCCO2 [Compound 1-132, 2-(4-{[6-fluoro-7-(8-methyl-2,3-dihydro-1H-pyrido[2,3-b][1,4]oxazin-7-yl)quinazolin-2-yl]amino}phenyl)-N,N-dimethylacetamide]	0.132
Cc1c(-c2cc3nc(Nc4ccc(CC(=O)N5CCOCC5)cc4)ncc3cc2F)cnc2c1NCCO2 [Compound 1-133, 2-(4-{[6-fluoro-7-(8-methyl-2,3-dihydro-1H-pyrido[2,3-b][1,4]oxazin-7-yl)quinazolin-2-yl]amino}phenyl)-1-(morpholin-4-yl)ethan-1-one]	0.0835
CCS(=O)(=O)Cc1ccc(Nc2ncc3cc(F)c(-c4cnc5c(c4C)NCCO5)cc3n2)cc1 [Compound 1-134, N-{4-[(ethylsulfonyl)methyl]phe-nyl}-6-fluoro-7-(8-methyl-2,3-dihydro-1H-pyrido[2,3-b][1,4]oxazin-7-yl)quinazolin-2-amine]	0.0425
Cc1c(-c2cc3nc(Nc4cnc5c(c4)CN(C)CC5)ncc3cc2F)cnc2c1NCCO2 [Compound 1-135, 6-fluoro-7-(8-methyl-2,3-dihydro-1H-pyrido[2,3-b][1,4]oxazin-7-yl)-N-(6-methyl-5,6,7,8-tetrahydro-1,6-naphthyridin-3-yl)quinazolin-2-amine]	0.482
COc1cc2c(cc1Nc1ncc3c(N)c(F)c(-c4cncc(N)c4C)cc3n1)CN(C)CC2 [Compound 2-1, 7-(5-amino-4-methylpyridin-3-yl)-6-fluoro-N~2~-(6-methoxy-2-methyl-1,2,3,4-tetrahydroisoquinolin-7-yl)quinazoline-2,5-diamine]	0.249
COc1cc2c(cc1Nc1ncc3c(N)c(F)c(-c4cnc5c(c4C)NCCO5)cc3n1)CN(C)CC2 [Compound 2-2, 6-fluoro-N~2~-(6-methoxy-2-methyl-1,2,3,4-tetrahydroisoquinolin-7-yl)-7-(8-methyl-2,3-dihydro-1H-pyrido[2,3-b][1,4]oxazin-7-yl)quinazoline-2,5-diamine]	0.0915
COC(=O)Cc1ccc(OC)c(Nc2ncc3c(N)c(F)c(-c4cnc5c(c4C)NCCO5)cc3n2)c1 [Compound 2-3, methyl (3-{[5-amino-6-fluoro-7-(8-methyl-2,3-dihydro-1H-pyrido[2,3-b][1,4]oxazin-7-yl)quinazolin-2-yl]amino}-4-methoxyphenyl)acetate]	323
COc1cc2c(cc1Nc1ncc3c(N)c(F)c(-c4cnc5c(c4C)NCCO5)cc3n1)CNCC2 [Compound 2-4, 6-fluoro-N~2~-(6-methoxy-1,2,3,4-tetrahydroisoquinolin-7-yl)-7-(8-methyl-2,3-dihydro-1H-pyrido[2,3-b][1,4]oxazin-7-yl)quinazoline-2,5-diamine]	0.979
COc1ccc(CC#N)cc1Nc1ncc2c(N)c(F)c(-c3cnc4c(c3C)NCCO4)cc2n1 [Compound 2-5, (3-{[5-amino-6-fluoro-7-(8-methyl-2,3-dihydro-1H-pyrido[2,3-b][1,4]oxazin-7-yl)quinazolin-2-yl]amino}-4-methoxyphenyl)acetonitrile]	270
COc1cc(S(N)(=O)=O)ccc1Nc1ncc2c(N)c(F)c(-c3cnc4c(c3C)NCCO4)cc2n1 [Compound 2-6, 4-{[5-amino-6-fluoro-7-(8-methyl-2,3-dihydro-1H-pyrido[2,3-b][1,4]oxazin-7-yl)quinazolin-2-yl]amino}-3-methoxybenzene-1-sulfonamide]	48.1
CC(=O)N1CCCc2cc(Nc3ncc4c(N)c(F)c(-c5cnc6c(c5C)NCCO6)cc4n3)ccc21 [Compound 2-7, 1-[6-{[5-amino-6-fluoro-7-(8-methyl-2,3-dihydro-1H-pyrido[2,3-b][1,4]oxazin-7-yl)quinazolin-2-yl]amino}-3,4-dihydroquinolin-1(2H)-yl]ethan-1-one]	0.112
Cc1c(-c2cc3nc(Nc4ccccc4OC(F)(F)F)ncc3c(N)c2F)cnc2c1NCCO2 [Compound 2-8, 6-fluoro-7-(8-methyl-2,3-dihydro-1H-pyrido[2,3-b][1,4]oxazin-7-yl)-N~2~- [2-(trifluoromethoxy)phenyl] quinazoline-2,5-diamine]	116
Cc1c(-c2cc3nc(Nc4cccnc4)ncc3c(N)c2F)cnc2c1NCCO2 [Compound 2-9, 6-fluoro-7-(8-methyl-2,3-dihydro-1H-pyrido[2,3-b][1,4]oxazin-7-yl)-N~2~- (pyridin-3-yl)quinazoline-2,5-diamine]	0.129
COc1cc2c(cc1Nc1ncc3c(N)c(F)c(-c4cnc5c(c4C)NCCO5)cc3n1)CN(C(C)=O)CC2 [Compound 2-12, 1-[7-{[5-amino-6-fluoro-7-(8-methyl-2,3-dihydro-1H-pyrido[2,3-b][1,4]oxazin-7-yl)quinazolin-2-yl]amino}-6-methoxy-3,4-dihydroisoquinolin-2(1H)-yl]ethan-1-one]	685
CNC(=O)Cc1ccc(Nc2ncc3c(N)c(F)c(-c4cnc5c(c4C)NCCO5)cc3n2)cc1 [Compound 2-13]	0.0496
Cc1c(-c2cc3nc(Nc4cccc(S(C)(=O)=O)c4)ncc3c(N)c2F)cnc2c1NCCO2 [Compound 2-14, 6-fluoro-7-(8-methyl-2,3-dihydro-1H-pyrido[2,3-b][1,4]oxazin-7-yl)-N~2~- [3-(methylsulfonyl)phenyl] quinazoline-2,5-diamine]	0.082
CC(=O)Nc1ccc(Nc2ncc3c(N)c(F)c(-c4cnc5c(c4C)NCCO5)cc3n2)cc1 [Compound 2-15]	0.0731
Cc1c(-c2cc3nc(Nc4ccc(NS(C)(=O)=O)cc4)ncc3c(N)c2F)cnc2c1NCCO2 [Compound 2-16, N-(4-{[5-amino-6-fluoro-7-(8-methyl-2,3-dihydro-1H-pyrido[2,3-b][1,4]oxazin-7-yl)quinazolin-2-yl]amino}phenyl)methane-sulfonamide]	0.0932
Cc1c(-c2cc3nc(Nc4ccc(S(C)(=O)=O)cc4)ncc3c(N)c2F)cnc2c1NCCO2 [Compound 2-17, 6-fluoro-7-(8-methyl-2,3-dihydro-1H-pyrido[2,3-b][1,4]oxazin-7-yl)-N~2~- [4-(methylsulfonyl)phenyl] quinazoline-2,5-diamine]	0.0851
Cc1c(-c2cc3nc(Nc4ccc(C5(C#N)CC5)cc4)ncc3c(N)c2F)cnc2c1NCCO2 [Compound 2-18, 1-(4-{[5-amino-6-fluoro-7-(8-methyl-2,3-dihydro-1H-pyrido[2,3-b][1,4]oxazin-7-yl)quinazolin-2-yl]amino}phenyl)cyclo-propane-1-carbonitrile]	0.382
Cc1c(-c2cc3nc(Nc4cncnc4)ncc3c(N)c2F)cnc2c1NCCO2 [Compound 2-19, 6-fluoro-7-(8-methyl-2,3-dihydro-1H-pyrido[2,3-b][1,4]oxazin-7-yl)-N~2~- (pyrimidin-5-yl)quinazoline-2,5-diamine]	1.34
COc1ccncc1Nc1ncc2c(N)c(F)c(-c3cnc4c(c3C)NCCO4)cc2n1 [Compound 2-20, 6-fluoro-N~2~-(4-methoxypyridin-3-yl)-7-(8-methyl-2,3-dihydro-1H-pyrido[2,3-b][1,4]oxazin-7-yl)quinazoline-2,5-diamine]	76.1
COc1c(Nc2ncc3c(N)c(F)c(-c4cnc5c(c4C)NCCO5)cc3n2)ccc2c1CCNC(=O)C2 [Compound 2-21]	487
Cc1c(-c2cc3nc(Nc4ccccc4F)ncc3c(N)c2F)cnc2c1NCCO2 [Compound 2-22, 6-fluoro-N~2~-(2-fluorophenyl)-7-(8-methyl-2,3-dihydro-1H-pyrido[2,3-b][1,4]oxazin-7-yl)quinazoline-2,5-diamine]	0.687
